Laboratory results taken from patent US5952354A, “Tris carbamic acid esters: inhibitors of cholesterol absorption” (priority 1993, dated 1999).
Where two headings read alike, the source gives them in different places.

Tests used:
[1] = system: acyl-coenzyme A: cholesterol acyltransferase (ACAT); assay: inhibition of acyl-coenzyme A: cholesterol acyltransferase (intracellular cholesterol esterification, procedure of Ross et al.); type: cell-based; conditions: for IC50: read-out: ACAT IC50
Procedure: 1. The ability of the compounds of this invention to inhibit acyl-coenzyme A: cholesterol acyltransferase was established by initially showing that they inhibited intracellular cholesterol esterification by subjecting them to the standard experimental test procedure of Ross et al., J. Biol. Chem. 259, 814 (1984). The results are reported in the following table, where available, in terms of the percent inhibition at 25 μM and the IC50 (μM).

[2] = system: absorption of 14C-cholesterol; assay: in vivo cholesterol absorption studies in normal rats ([4-14C] cholesterol); conditions: Rattus norvegicus, read-out: Effect on Absorption of 14C-chol. - 6 hr - normal, % Decrease; for inhibition in vivo at 3 mg/kg: 3 mg/kg oral; for inhibition in vivo at 10 mg/kg: 10 mg/kg oral
Procedure: The in vivo cholesterol absorption studies were conducted in normal rats by oral administration of the compound being tested in propylene glycol and olive oil followed by oral administration of [4-^14 C] cholesterol in propylene glycol and olive oil, otherwise following the procedure of Cayen et al., J. Lipid Res. 20 162 (1979). The serum radioactivity was measured at six hours after dosing. The results of this study are reported in the following table as percent decrease compared to control at the dose stated.

[3] = target: T1, cholesterol esterase (EC 3.1.1.13) (CEH) (Bos taurus, UniProt P30122); assay: inhibition of cholesteryl ester formation by cholesterol esterase (CEH), procedure of Field; type: biochemical, bovine
T1 construct: purchased Sigma Company, St. Louis, Mo., U.S.A. C-1892; host or cells: bovine pancreas
T1 sequence (P30122 19-597): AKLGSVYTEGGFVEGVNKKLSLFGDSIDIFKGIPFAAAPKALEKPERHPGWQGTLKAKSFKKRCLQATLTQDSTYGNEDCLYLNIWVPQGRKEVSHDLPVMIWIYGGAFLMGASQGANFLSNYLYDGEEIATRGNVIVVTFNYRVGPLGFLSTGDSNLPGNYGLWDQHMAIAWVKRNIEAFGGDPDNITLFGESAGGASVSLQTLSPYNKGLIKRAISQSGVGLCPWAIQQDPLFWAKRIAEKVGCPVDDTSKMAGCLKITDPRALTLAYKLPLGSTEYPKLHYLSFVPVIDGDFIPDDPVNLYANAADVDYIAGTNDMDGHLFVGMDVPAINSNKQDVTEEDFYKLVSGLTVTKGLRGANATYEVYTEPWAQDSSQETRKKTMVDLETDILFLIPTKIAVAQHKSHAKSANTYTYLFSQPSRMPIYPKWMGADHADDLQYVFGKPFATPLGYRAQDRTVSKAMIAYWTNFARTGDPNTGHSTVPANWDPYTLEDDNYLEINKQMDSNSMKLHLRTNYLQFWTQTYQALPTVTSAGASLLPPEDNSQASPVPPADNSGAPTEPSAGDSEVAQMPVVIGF
Procedure: 2. The ability of the compounds of this invention to inhibit the formation of cholesteryl esters and thereby interfere with and prevent assimilation of cholesterol into the lymphatic system and ultimately the blood stream was established by incubating the compounds at 37C. with a mixture of cholesterol and oleic acid in the presence of buffered cholesterol esterase [(EC 3.1.1.13) Sigma Company, St. Louis, Mo., U.S.A., No. C-1892, from bovine pancreas] and measuring the amount of ester formed, according to the procedure of Field. J. of Lipid Research, 25, 389 (1984).

[4] = normal rats, serum radioactivity at 6 hr, vs control
[5] = 37C, cholesterol and oleic acid, buffered cholesterol esterase from bovine pancreas, read-out: CEH IC50
[6] = 20 mg/kg oral, normal rats, serum radioactivity at 6 hr, vs control

CCCCCCNC(=O)OCCCCCCNC(=O)OC1CCN(C(=O)Oc2ccc(Oc3ccccc3)cc2)CC1 [Example 6, 4-[6-(Hexylcarbamoyloxy)-hexylcarbamoyloxy]-piperidine-1-carboxylic acid 4-phenoxyphenyl ester]
ACAT % inhibition at 25 μM [1]: 97% | IC50 [1]: 1.78 µM | inhibition in vivo at 3 mg/kg [2, 4]: 59% | IC50 [3, 5]: 0.42 µM

O=C(NCCCCCCOC(=O)N(Cc1ccccc1)Cc1ccccc1)OC1CCN(C(=O)Oc2ccc(Oc3ccccc3)cc2)CC1 [Example 9]
ACAT % inhibition at 25 μM [1]: 95% | IC50 [1]: 1.59 µM | inhibition in vivo at 10 mg/kg [2, 4]: 49% | IC50 [3, 5]: 0.08 µM

CCCCCCN(CCCCCC)C(=O)OCCCCCCNC(=O)OC1CCN(C(=O)Oc2ccc(Oc3ccccc3)cc2)CC1 [Example 7]
ACAT % inhibition at 25 μM [1]: 76% | IC50 [1]: 6.41 µM | inhibition in vivo at 20 mg/kg [2, 6]: 42% | IC50 [3, 5]: 0.67 µM

CCCCCCNC(=O)OCCCNC(=O)OC1CCN(C(=O)Oc2ccc(Oc3ccccc3)cc2)CC1 [Example 16, 4-[3-(Hexylcarbamoyloxy)-propylcarbamoyloxy]-piperidine-1-carboxylic acid 4-phenoxyphenyl ester]
inhibition in vivo at 10 mg/kg [2, 4]: 68% | IC50 [3, 5]: 0.73 µM

CCCCCCNC(=O)OCCCCCCCCCCCCNC(=O)OC1CCN(C(=O)Oc2ccc(Oc3ccccc3)cc2)CC1 [Example 10, 4-[12-(Hexylcarbamoyloxy)-dodecylcarbamoyloxy]-piperidine-1-carboxylic acid 4-phenxoyphenyl ester]
ACAT % inhibition at 25 μM [1]: 83% | IC50 [1]: 5 µM | inhibition in vivo at 20 mg/kg ([2]; po, 6 h): 22% | IC50 [3]: 0.62 µM

CCCCCCCCCNC(=O)OCCCNC(=O)OC1CCN(C(=O)Oc2ccc(Oc3ccccc3)cc2)CC1 [Example 18, 4-[3-(Nonylcarbamoyloxy)-propylcarbamoyloxy]-piperidine-1-carboxylic acid 4-phenoxyphenyl ester]
inhibition in vivo at 10 mg/kg [2, 4]: 50% | IC50 [3, 5]: 0.51 µM

CCCCCCCC/C=C\CCCCCCCCNC(=O)OCCCCCCNC(=O)OC1CCN(C(=O)Oc2ccc(Oc3ccccc3)cc2)CC1 [Example 13]
ACAT % inhibition at 25 μM [1]: 47% | inhibition in vivo at 20 mg/kg [2, 6]: 20% | IC50 [3, 5]: 15.5 µM

O=C(NCCCCCCOC(=O)N1CCCCC1)OC1CCN(C(=O)Oc2ccc(Oc3ccccc3)cc2)CC1 [Example 8, 4-[6-(Piperidine-1-carbonyloxy)-hexylcarbamoyloxy]-piperidine-1-carboxylic acid 4-phenoxyphenyl ester]
ACAT % inhibition at 25 μM [1]: 98% | IC50 [1]: 2.34 µM | inhibition in vivo at 3 mg/kg [2, 4]: 65% | IC50 [3, 5]: 0.54 µM

CCCCCCCN(Cc1ccc(CC(C)(C)C)cc1)C(=O)OCCCCCCNC(=O)OC1CCN(C(=O)Oc2ccc(Oc3ccccc3)cc2)CC1 [Example 11, 4-{6-[(4-(2,2-Dimethyl-propyl)-benzyl)-heptyl-carbamoyloxy]-hexyl-carbamoyloxy}-piperidine-1-carboxylic acid 4-phenoxyphenyl ester]
ACAT % inhibition at 25 μM [1]: 24% | inhibition in vivo at 20 mg/kg [2, 6]: 6% | IC50 [3, 5]: 28.2 µM

CCCCCCCC/C=C\CCCCCCCCNC(=O)OCCCCCCCCCCCCNC(=O)OC1CCN(C(=O)Oc2ccc(Oc3ccccc3)cc2)CC1 [Example 14, (Z)-4-[12-(Octadec-9-enylcarbamoyloxy)-dodecylcarbamoyloxy]-piperidine-1-carboxylic acid 4-phenoxyphenyl ester]
ACAT % inhibition at 25 μM [1]: 41% | inhibition in vivo at 20 mg/kg [2, 6]: 2% | IC50 [3, 5]: > 100 µM

O=C(NCCCCCCOC(=O)N1CCC2(CCCC2)CC1)OC1CCN(C(=O)Oc2ccc(Oc3ccccc3)cc2)CC1 [Example 12, 8-Aza-spiro[4,5]decane-8-carboxylic acid 6-{[1-(4-phenoxy-phenoxycarbonyl)-piperidine-4-oxycarbonyl]amino}-hexyl ester]
ACAT % inhibition at 25 μM [1]: 83% | IC50 [1]: 1.72 µM | inhibition in vivo at 10 mg/kg [2, 4]: 76% | IC50 [3, 5]: 0.31 µM
